Test results taken from US20060263344A1, “Novel probiotic compositions and methods of using the same” (priority 2003, published 2006).

Tests used:
[1] = test system: lower density lipoproteins (LDL+VLDL); assay: Inhibition of cupric ion-induced oxidation of lower density lipoproteins (antioxidant activity); format: biochemical, humans; conditions: inhibition of lipid peroxide formation in LDL+VLDL, 25 μM cupric ion, 37° C., 6 hours; matrix sample based on CoQ10 conc.
Description: A weighed portion (50-500 mg) of solid sample of CoQ10 contained in a glycoprotein matrix was mixed with 5 ml of 50% methanol/water and heated at 90° C. in a plastic screw-capped tube with intermittent shaking for 2 hours to determine the unconjugated (“free”) phenols present. Another weighed portion of the same sample was heated with 5 ml of 1.2 M HCl in 50% aqueous methanol for 2 hours at 90° C. to measure the unconjugated plus conjugated (“total”) phenols. The extracts, each done in duplicate, were then filtered with a 0.45 μm filter and stored at −20° C. until assay. Values for free polyphenols and total phenols for commercial CoQ10 are known.
The phenol content in the extracts was measured by the Folin-Cocialteu reagent (Sigma Chemical Co., St. Louis, Mo.) using catechin (Sigma) as a standard. A blank, catechin standards and samples were added to the Folin reagent in a cuvette and after 20 minutes the color was measured at 720 nm vs. a blank. […]
The amount of lipid peroxides was measured using thiobarbituric acid and fluorometry. The % of inhibition of lipid peroxide formation was calculated vs. a control with no added antioxidants. The IC50 value in μM units was then calculated.
The amount of CoQ10 in the composition of the invention was determined by HPLC using UV detector, C18 column (Perkin Elmer Pecosil 5, 15 cm) and a solvent of 75% methanol and 25% isopropanol. […]

[2] = Stability of CoQ10 in a 50° C. oven open to the air (HPLC); format: physicochemical; conditions: for Loss of CoQ10 after 36 days at 50° C. (equivalent to 3 months at room temperature) / Loss of CoQ10 after 72 days at 50° C. (equivalent to 6 months at room temperature): open to the air
Description: 100 mg of USP CoQ10 (Sigma) and CoQ10 contained in a glycoprotein matrix from Example 1 was placed in a 10 ml beaker in a 50° C. oven open to the air. The amount of CoQ10 remaining was analyzed by HPLC using a C18 column (Perkin Elmer Pecosil 5, 15 cm) and a solvent of 75% methanol and 25% isopropanol.

## COC1=C(OC)C(=O)C(C/C=C(\C)CC/C=C(\C)CC/C=C(\C)CC/C=C(\C)CC/C=C(\C)CC/C=C(\C)CC/C=C(\C)CC/C=C(\C)CC/C=C(\C)CCC=C(C)C)=C(C)C1=O [CoQ10 (USP), Coenzyme Q10]
[1]
  IC50: 1.33 µM
[2]; 0 days
  Loss of CoQ10 at 0 days: 0%
[2]; listed as USP CoQ10
  Loss of CoQ10 after 36 days at 50° C. (equivalent to 3 months at room temperature): 6.8%
  Loss of CoQ10 after 72 days at 50° C. (equivalent to 6 months at room temperature): 16.8%
[2]; listed as commercial CoQ10
  Loss of CoQ10 after 36 days at 50° C. (equivalent to 3 months at room temperature): 6.8%
[2]; listed as commercial sample
  Loss of CoQ10 after 72 days at 50° C. (equivalent to 6 months at room temperature): 16.8%
